We go through eleven molecules from patent publication US20010011075A1, “5'-SUBSTITUTED-RIBOFURANOSYL BENZIMIDAZOLES AS ANTIVIRAL AGENTS” (priority 1999, published 2001).

Structures are written as SMILES. Where two headings read alike, the source gives them in different places. Where only a bound is given, the exact number is not on record here.

For series [1], the system named is HFF cells. Put plainly: Visual cytotoxicity in stationary HFF cells at time of plaque enumeration. It is filed as cell-based, human. Conditions: visual cytotoxicity on HFF cells at time of HCMV plaque enumeration; read-out: 50% Inhibitory Concentration, Cytotoxicity (HFF). As for the experimental part: (§1) KB cells (available from the American Type Culture Collection (ATCC) 12301 Parklawn Drive, […], Md. 20852 (ATCC CCL 17)), an established human cell line derived from an epidermal oral carcinoma, were grown in minimal essential medium (MEM) (Sigma) with Hanks salts (MEM(H)) supplemented with 5% fetal calf serum. Human foreskin fibroblasts (HFF cells) (provided by the University of Michigan Hospital) and African green monkey kidney cells (BSC-1) (ATTC CCL 26) cells were grown in MEM with Earl salts (MEM(E)) supplemented with 10% fetal bovine serum. Cells were passaged according to conventional procedures and as described in Shipman, C., Jr. et al. (1976) Antimicrob. Agents Chemother. Vol. 9:120 and incorporated herein by reference. Briefly, cells were passaged at 1:2 to 1:10 dilutions according to conventional procedures by using 0.05% trypsin plus 0.02% EDTA in a HEPES buffered salt solution. HFF cells were passaged only at 1:2 dilutions.
(§2) Two different methods were used to evaluate cytotoxicity of the compounds. First, cytotoxicity produced in stationary HFF cells was determined by microscopical examination of cells not affected by the virus used in the plaque assay. Second the effect of compounds on KB cells during two population doubling times was determined by crystal violet staining and spectrophotometric quantitation of dye eluted from stained cells. This method has been utilized for the analysis of ganciclovir and zidovudine (See Prichard, M. N. et al. Antiviral Res. (1991) Vol. 35:1060-1065).
(§3) (3) Visual cytotoxicity was scored on HFF cells at the time of HCMV plaque enumeration. Inhibition of KB cell growth was determined as described in the experimental. 3L was used as a positive control for the KB cytotoxicity assay.

Series [2] relates to HCMV. The following applies: background statement; times more active than TCRB; cited from earlier work.
Series [3] concerns HSV-1. The experiment in a line: HSV-1 ELISA assay. The class given is cell-based, HSV-1 (KOS strain). The following applies: read-out: 50% Inhibitory Concentration, Antiviral Activity (ELISA). As for the experimental part: (§4) A plaque purified isolate, Po, of the Towne strain of HCMV was used in all experiments and was a gift of Dr. Mark Stinski, University of Iowa. The KOS strain of HSV-1 was used and was provided by Dr. Sandra K. Weller, University of Connecticut. Stock preparations of HCMV and HSV-1 were prepared and titered as known to those of skill and the art and described in Turk, S. R. et al. (1987) Antimicrob. Agents Chemother. Vol. 31:544-550 and Shipman, C., Jr., et al. (1990) J. Virol. Methods Vol. 28:101-106, each incorporated herein by reference.
(§5) HCMV plaque reduction experiments were performed with monolayer cultures of HFF cells by a procedure similar to that referenced above for titration of the viruses and described in Devivar, R. V. et al. (1994) J. Med. Chem. Vol. 37:2942-2949. Activity of compounds against HSV-1 was evaluated using an ELISA assay.
ELISA techniques according to standard procedures were also used to determine activity against HSV-1. Drug effects were calculated as a percentage of the reduction in virus titers in the presence of each drug concentration compared to the titer obtained in the absence of drug. Ganciclovir was used as a positive control in all experiments.
(§6) Dose-response relationships can be used to compare drug effects. These are constructed by linearly regressing the percent inhibition of parameters derived in the preceding sections against log drug concentrations. The 50 inhibitory (I50) concentrations were calculated from the regression lines using the methods described by Goldstein. See Goldstein, A., Biostatistics: An Introductory Text, MacMillan, New York, pp. 156-161 (1964), incorporated herein by reference.
(§7) (2) A plaque assay was used to quantitate anti HCMV activity, an ELISA assay was used to quantitate activity against HSV-1. DHPG (ganciclovir) was used as a positive control for the HCMV assay.
A general note: In an ELISA, binding on a coated surface is turned into a signal by an enzyme label.

In series [4] the test system is KB cells. Put plainly: Inhibition of KB cell growth (crystal violet staining). The following applies: inhibition of KB cell growth; read-out: 50% Inhibitory Concentration, Cytotoxicity (KB). It is filed as cell-based, human. As for the experimental part: as §1, §2, §3
The subject of series [5] is HCMV. Put plainly: HCMV plaque (focus) reduction assay in HFF cells. The class given is cell-based, HCMV (Towne strain). The following applies: for IC50: HCMV plaque assay, HFF cells, averages from two or more experiments, read-out: 50% Inhibitory Concentration, Antiviral Activity (plaque); for anti-HCMV activity (in words): Table 1. As for the experimental part:
as §4, §5
The effect of compounds of the replication of HCMV was measured using a plaque (focus) reduction assay. For the former, HFF cells in 24-well culture dishes were infected with approximately 50 p.f.u. of HCMV per well using the procedures detailed above. Compounds dissolved in growth medium were added in four to six selected concentrations to duplicate wells following virus adsorption. Following incubation at 37° C. for 7 to 10 days, cell sheets were fixed, stained and microscopic plaques were enumerated as described above. Drug effects were calculated as a percentage of reduction in number of plaques in the presence of each drug concentration compared to the number observed in the absence of drug. DHPG (ganciclovir) was used as a positive control in all experiments.
as §6, §7

The nature of series [6]: Visual cytotoxicity in stationary HFF cells at time of plaque enumeration. It is filed as cell-based, human. Conditions: human, stationary human foreskin fibroblasts (HFF cells); visual cytotoxicity on HFF cells at time of HCMV plaque enumeration; read-out: 50% Inhibitory Concentration, Cytotoxicity (HFF). As for the experimental part: as §1, §2, §3
The nature of series [7]: Inhibition of KB cell growth (crystal violet staining). The class given is cell-based, human. Conditions: human, KB cells (human epidermal oral carcinoma line); inhibition of KB cell growth; read-out: 50% Inhibitory Concentration, Cytotoxicity (KB). As for the experimental part: as §1, §2, §3
Series [8] concerns L1210 cells. Put plainly: Antiproliferative activity: growth of L1210 cells. Conditions: concentration required to decrease final growth rate of L1210 cells to half of control rate, read-out: 50% Inhibitory Concentration, Antiproliferative Activity. It is filed as cell-based, mouse. As for the experimental part: Antiproliferative activity was evaluated by measuring the effect of the compounds on the growth of L1210 cells, a mouse leukemia cell line which is generally available and can be obtained from Cancer Chemotherapy Center, Japanese Foundation for Cancer Research. Antiproliferative activity was measured using conventional procedures and as described in Wotring, L. L. and Townsend, L. B., (1979) Cancer Res. Vol. 39:3018-3023 and Cory, A. H. et al. (1991) Cancer Comm. Vol. 3:207-212, each incorporated herein by reference.
(8) The concentration required to decrease the final growth rate of L1210 cells to half of the control rate. All values are averages from two or more experiments.

The mark [9] stands for this setting: averages from two or more experiments.
The mark [10] stands for this setting: Human alphaherpesvirus 1, averages from two or more experiments.

For `C[C@H]1O[C@@H](n2c(Cl)nc3cc(Cl)c(Cl)cc32)[C@H](O)[C@@H]1O` [Compound 2, 2,5,6-trichloro-1-(5′-deoxy-β-D-ribofuranosyl)benzimidazole, reference compound], the IC50 is 77 µM in [1], more than 100 µM in series [3] (setting [9]), 150 µM in [4] and 0.36 µM in series [5]. In addition, the “activity relative to TCRB” value in series [2] is recorded as “about 10 times”.
As to `COC[C@H]1O[C@@H](n2c(Cl)nc3cc(Cl)c(Cl)cc32)[C@H](OC(C)=O)[C@@H]1OC(C)=O` [Compound 7a, 2,5,6-trichloro-1-(2′,3′-di-O-acetyl-5′-O-methyl-β-D-ribofuranosyl)benzimidazole], the melting point lay in the range of 150 to 151 °C. Also, the IC50 in series [6] is 26 µM. Further, the IC50 in series [3] (setting [10]) was more than 100 µM. Besides, in series [7], the IC50 at 2 population doubling times turned out to be 80 µM. In addition, the IC50 in [5] (Human betaherpesvirus 5, HFF) was found to be 2.8 µM.
For `CCOC[C@H]1O[C@@H](n2c(Cl)nc3cc(Cl)c(Cl)cc32)[C@H](OC(C)=O)[C@@H]1OC(C)=O` [Compound 7b, 2,5,6-trichloro-1-(2′,3′-di-O-acetyl-5′-O-ethyl-β-D-ribofuranosyl)benzimidazole], in that order: 125 to 126 °C, 33 µM, more than 100 µM, 60 µM and 4.3 µM.
For the molecule `CCCCOC[C@H]1O[C@@H](n2c(Cl)nc3cc(Cl)c(Cl)cc32)[C@H](OC(C)=O)[C@@H]1OC(C)=O` [Compound 7c, 2,5,6-trichloro-1-(2′,3′-di-O-acetyl-5′-O-butyl-β-D-ribofuranosyl)benzimidazole], the melting point is 143 to 144 °C. In addition, the IC50 in series [6] worked out at 66 µM. Also, in [3] (setting [10]), the IC50 was more than 100 µM. For the same molecule, in [7], the IC50 at 2 population doubling times is more than 100 µM. Besides, in series [5] (Human betaherpesvirus 5, HFF), the IC50 is 21 µM.
Take `CCCCCCOC[C@H]1O[C@@H](n2c(Cl)nc3cc(Cl)c(Cl)cc32)[C@H](OC(C)=O)[C@@H]1OC(C)=O` [Compound 7d, 2,5,6-trichloro-1-(2′,3′-di-O-acetyl-5′-O-hexyl-β-D-ribofuranosyl)benzimidazole]: the melting point was 98 to 100 °C. Also, the IC50 in series [6] was determined as 32 µM. Moreover, in series [3] (setting [10]), the IC50 was more than 100 µM. In series [7], the IC50 at 2 population doubling times turned out to be 60 µM. For the same molecule, in [5] (Human betaherpesvirus 5, HFF), the IC50 was 8 µM. Besides, the “anti-HCMV activity (in words)” value in [5] is “decreased activity over the butyl compound (7c)”.
Take `COC[C@H]1O[C@@H](n2c(Cl)nc3cc(Cl)c(Cl)cc32)[C@H](O)[C@@H]1O` [Compound 8a, 2,5,6-trichloro-1-(5′-O-methyl-β-D-ribofuranosyl)benzimidazole]: the melting point was in the range of 104 to 105 °C. In addition, in series [8] (Mus musculus), the IC50 worked out at 60 µM. Further, the IC50 in series [6] amounted to 26 µM. Moreover, the IC50 in series [3] (setting [10]) was more than 100 µM. The IC50 at 2 population doubling times in [7] is 90 µM. For the same molecule, in series [5] (Human betaherpesvirus 5, HFF), the IC50 stood at 3 µM.
`CCOC[C@H]1O[C@@H](n2c(Cl)nc3cc(Cl)c(Cl)cc32)[C@H](O)[C@@H]1O` [Compound 8b, 2,5,6-trichloro-1-(5′-O-ethyl-β-D-ribofuranosyl)benzimidazole] gave a melting point of 88 to 90 °C. Moreover, the IC50 in series [8] (Mus musculus) amounted to 59 µM. Besides, the IC50 in series [6] came to 26 µM. Further, in [3] (setting [10]), the IC50 was more than 100 µM. In addition, in series [7], the IC50 at 2 population doubling times stood at 80 µM. The IC50 in [5] (Human betaherpesvirus 5, HFF) came to 4.6 µM.
The molecule `CCCCOC[C@H]1O[C@@H](n2c(Cl)nc3cc(Cl)c(Cl)cc32)[C@H](O)[C@@H]1O` [Compound 8c, 2,5,6-trichloro-1-(5′-O-butyl-β-D-ribofuranosyl)benzimidazole] returned a melting point of 70 to 72 °C. Further, in series [8] (Mus musculus), the IC50 is more than 100 µM. For the same molecule, the IC50 in series [6] came out at 32 µM. The IC50 in [3] (setting [10]) was more than 100 µM. Further, in [7], the IC50 at 2 population doubling times was found to be 60 µM. Moreover, in series [5] (Human betaherpesvirus 5, HFF), the IC50 is 14.2 µM.
In the case of `O[C@@H]1[C@H](O)[C@@H](CCl)O[C@H]1n1c(Cl)nc2cc(Cl)c(Cl)cc21` [Compound 13b, 2,5,6-trichloro-1-(5′-deoxy-5′-chloro-β-D-ribofuranosyl)benzimidazole], the IC50 in series [8] is more than 100 µM; in series [1] it was 32 µM; in series [3] (setting [9]) it was more than 100 µM; in series [4], 90 µM; in series [5], 1 µM.
As to `[N-]=[N+]=NC[C@H]1O[C@@H](n2c(Cl)nc3cc(Cl)c(Cl)cc32)[C@H](O)[C@@H]1O` [Compound 17a, 2,5,6-trichloro-1-(5′-deoxy-5′-azido-β-D-ribofuranosyl)benzimidazole], the IC50 was 80 µM in series [8]; 32 µM in series [1]; more than 100 µM in series [3] (setting [9]); 70 µM in series [4]; 1.5 µM in series [5].
In the case of `CSC[C@H]1O[C@@H](n2c(Cl)nc3cc(Cl)c(Cl)cc32)[C@H](O)[C@@H]1O` [Compound 17b, 2,5,6-trichloro-1-(5′-deoxy-5′-methylthio-β-D-ribofuranosyl)benzimidazole], the IC50 was more than 100 µM in series [8]; 32 µM in series [1]; more than 100 µM in series [3] (setting [9]); more than 100 µM in series [4]; 4.5 µM in [5]. Also, the “anti-HCMV activity (in words)” value in series [5] was “equally active as the 5′-O-ethyl derivative (8b)”.

A word on the melting point: it is the temperature of the solid-liquid transition.
